Reference: patent US10023864B2, “Methods of treating a metabolic syndrome by modulating heat shock protein (HSP) 90-beta” (Berg LLC, priority 2014, dated 2018)
Entries after “also recorded” stand apart in the source; their conditions may differ. d = 2'-deoxy (DNA); m = 2'-O-methyl

Experiments:
DIO mice [1] = assay: Insulin level in DIO mice; format: in vivo, mouse
Experimental: (§1) The mice were divided into four groups: (1) lean (non-diabetic control); (2) diabetic receiving control ASO (NC-ASO); (3) diabetic receiving ASO5; and (4) diabetic receiving ASO6. In various experiments mice were dosed intra-peritoneally with twice per week injection of ASO at […] body weight for 4 or 8 weeks. Skeletal muscles were subjected to quantitative PCR.
Further, the effect of the reduction of Hsp90ab1 protein level on plasma insulin levels was examined.

muscle of DIO mice = assay: Lipidomic analysis of muscle of DIO mice; format: in vivo, mouse
Description: As noted in the above examples, Hsp90ab1 was identified as a critical node in Bayesian metabolic disease network derived by the interrogation of the biology underlying diabetes in a data driven manner. This was achieved by using a proprietary platform integrating pan-omic data, mitochondrial-centric metabolic fingerprint and phenotypic assays capturing metabolic dysregulation reminiscent of obesity/diabetes sequale. Hsp90ab1 is an ATPase targeting multiple clients including vital components of insulin signaling and mitochondrial membrane proteins. However the role of Hsp90ab1 in metabolism remains unknown. […] This was accompanied by decreased muscle PDH E1a phosphorylation, reflecting an increased insulin sensitivity and carbohydrate substrate metabolism. We also observed significant alteration in the lipidomic profile in these DIO mice treated with ASO6. For example ASO6-mediated knockdown of Hsp90ab1 in DIO mice increased 18:2 enriched species of cardiolipin in muscle. […] Taken together, our data provides novel evidence that Hsp90ab1 isoform is a key regulator of skeletal muscle cell metabolism and systemic metabolism, and represents a target for treatment of diabetes.

Hsp90ab1 mRNA = Hsp90ab1 mRNA in gastrocnemius muscles of DIO mice (quantitative PCR); format: in vivo, mouse; settings: ASO intra-peritoneally twice per week
Experimental: as §1

DIO mice [2] = assay: Fed / plasma glucose level in DIO mice; format: in vivo, mouse
Experimental: as §1
Additional experiments were performed to determine the effect of the reduction of Hsp90ab1 protein level on the level of glucose in plasma. […] Thus, treatment with an Hsp90ab1 selective ASO is effective for improving glucose utilization in DIO mice.

human Hsp90AB1 mRNA = assay: Knockdown of Hsp90AB1 mRNA in HSMM myotubes; format: cell-based; settings: normalized to cyclophilin, vs NC1ASO
Description: The level of human Hsp90AB1 at the mRNA level was similarly observed to be reduced in HSMM myotubes treated with the exemplary mouse antisense oligonucleotide ASO6 (FIG. 20). ASO6 (and ASOs 1-5 and 7-9) is derived from the mouse HSP90AB1 gene. The oligonucleotide NC1ASO was again used as a negative control. The level of HSP90 mRNA was normalized to a control (cyclophilin) mRNA. The human and the mouse Hsp90aB1 gene share 96% homology.

DIO mice [3] = assay: Intraperitoneal glucose tolerance test (IPGTT) in DIO mice; format: in vivo, mouse; settings: four weeks treatment, vs NC ASO
Experimental: Glucose tolerance tests (GTT) are performed after 6 h of fasting. Initial fasting blood glucose levels are determined, followed by intraperitoneal (ip) injection of 20% dextrose solution at a dose of 2.0 g/kg body weight (2 g/kg body weight). Blood glucose levels are measured from the tail vein at 15, 30, 60, 90, 120, 150, and 180 minutes after the glucose injection using a commercially available glucose monitor, e.g., an Accu-chek® Advantage glucometer (Roche Diagnostics®, Indianapolis, Ind.). The area under the curve (AUC) during the GTT is calculated using a commercially available software program, e.g., GraphPad Prism software. GTT experiments for different groups are run in parallel. At each time point of the tail vein glucose measurements, ˜40 μL of tail vein blood is collected and plasma is prepared for subsequent insulin level assays using ELISA/RIA for time points at 0, 15, and 30 min after glucose injections.
HSP90AB1 antisense oligonucleotides (ASO) specific to HSP90AB1 were administered to DIO mice. […]
The mice were divided into four groups: (1) lean (non-diabetic control); (2) diabetic receiving control ASO (NC-ASO); (3) diabetic receiving ASO5; and (4) diabetic receiving ASO6. […] Skeletal muscles were subjected to quantitative PCR.
At the end of the treatment period glucose tolerance was measured. […]

human Hsp90AB1 protein = assay: Knockdown of Hsp90AB1 protein in HSMM by Western blotting; format: cell-based; settings: Western blot, normalized to actin, vs NC1
Experimental: ASO1-ASO6 were tested for their ability to knock down human Hsp90AB1 levels in HSMM myotubes. The effectiveness of oligonucleotides ASO1 (A1), ASO2 (A2) ASO3 (A3) ASO4 (A4) ASO5 (A5) and ASO6 (A6) in knocking down the expression of HSP90AB1 protein is shown by Western blotting in FIGS. 19A and 19B. The oligonucleotide NC1 was used as a negative control. HSP90Ab1 protein levels were normalized to the levels of actin.
The ASO oligonucleotides ASO5, ASO13 and ASO18 were tested for their ability to reduce expression of human Hsp90AB1 protein in human skeletal muscle myotubes (HSMM) and C2C12 mouse myoblasts by Western blotting. ASO5 was derived from the mouse HSP90ab1 gene, while ASO13 and ASO18 were directed to the human HSP90ab1 gene. The oligonucleotide NC1 was used as a negative control. HSP90AB1protein levels were normalized to the levels of actin.

[4] = tested on: skeletal muscles of DIO mice; assay: Skeletal muscle gene expression and PDH-E1α phosphorylation in DIO mice; format: in vivo, mouse
Description: PDK4 is known to phosphorylate pyruvate dehydrogenase (PDH)-E1α subunit, thereby inhibiting PDH and downregulating mitochondrial glucose oxidation. […] This decrease in phosphorylation is indicative of an increase in active PDH-E1α and a resultant increase in mitochondrial glucose oxidation. Thus, ASO mediated Hsp90ab1 knock-down is effective for enhancing substrate metabolism through suppression of PDK4 expression.
These genes are PFKM (phosphofructokinase, muscle), ALDOA (aldolase A), GYS1 (glycogen synthase 1) ACCA (Acetyl-CoA carboxylase), HSL (Hormone sensitive lipase), SCD1 (Stearoyl-CoA desaturase), ACADL (Acyl-CoA Dehydrogenase), and CPT1b (Carnitine palmitoyltransferase I). Gene expression was examined in the skeletal muscles of the mice.

Substance: mU*mC*mC*mU*mC*mC*T*C*T*T*T*C*T*C*A*C*C*T*mU*mU*mC*mU*mC*mU (antisense UCCUCCTCTTTCTCACCTUUCUCU; sugars from the 5' end m6 d12 m6, all phosphorothioate, methylation of C not given here) [ASO6, modified antisense oligonucleotide derived from the mouse HSP90AB1 gene]
- fed insulin levels (DIO mice [1]): significant reduction
- 18:0 and 18:0-OH acylcarnitines in muscle (muscle of DIO mice): selectively decreased
- 18:2 enriched species of cardiolipin in muscle (muscle of DIO mice): increased
- steric, oleic, and linoleic free fatty acids (FFA) in muscle (muscle of DIO mice): decreased
- Hsp90ab1 mRNA level in the gastrocnemius muscles (Hsp90ab1 mRNA): effective; also recorded: reduce
- fed glucose level (DIO mice [2]; DIO mice, eight weeks treatment): significant improvement
- fed glucose levels (DIO mice [2]; HFD fed C57B/6 mice, 4 weeks treatment): suppressed
- level of human Hsp90AB1 mRNA (human Hsp90AB1 mRNA): knockdown; also recorded: reduced
- glucose tolerance (IPGTT) (DIO mice [3]): significant improvement; also recorded: significantly improved
- level of HSP90ab1 protein (human Hsp90AB1 protein): effective; also recorded: most effective
- PDK4 expression (mRNA) in skeletal muscle ([4]; DIO mice (fed HFD), 4 weeks, vs NC): significant decrease
- phosphorylation of PDH-E1α (S232, S293, S300) in skeletal muscle ([4]; DIO mice, Western blot): decreased
- skeletal muscle mRNA level of Adipose triglyceride lipase (ATGL) ([4]; DIO mice, four weeks): sharp increase
- expression of key genes that regulate glycolysis and lipid oxidation (PFKM, ALDOA, GYS1, ACCA, HSL, SCD1, ACADL, CPT1b) ([4]; DIO mice, four weeks, skeletal muscles): influences the expression
